{"source": "patent US7728128B2", "about": "“Dibenzo[c,h][1,5]naphthyridines and their use as DNA probes” (Institut National de la Sante et de la Recherche Medicate …, priority 2006, dated 2010)", "key": {"human fibroblasts": {"tested_on": "human fibroblasts", "assay": "in vivo nuclear fluorescence of human fibroblasts incubated with the molecules, scored in the microscope", "format": "cell-based", "parameters": "key: Weak: Staining was defined as “weak”, “moderate” or “strong” based on the nuclear signal/background ratio.; Moderate: Staining was defined as “weak”, “moderate” or “strong” based on the nuclear signal/background ratio.; Strong: Staining was defined as “weak”, “moderate” or “strong” based on the nuclear signal/background ratio", "details": "10 μM, 10-60 min (up to 24 hours); Alexa488/FITC filter", "description": "In this study, three different types of cells were used: Xenopus epithelial cell line XL177 (Miller, L. et al., 1977, In Vitro, 13, 557-563) stably transformed with a YFP-α-tubulin expressing construct (pEYFP-Tub, Clontech), mouse fibroblasts, and primary human skin fibroblasts. XL177 cells were grown at 20° C. in 60% Leibowitz-15 medium, supplemented with antibiotics, 10% fetal calf serum (FCS) and 10 mM HEPES, pH 7.2 with addition of 0.7 mg/ml G418. Cells were plated into glass-bottom 96-well plates (Greiner, Germany) and left to spread for 24 hours before being incubated in the presence of the test compounds from the Curie-CNRS small molecule library (at 25 or 50 μM final concentration) for another 20-24 hours. Mouse and human fibroblasts were grown in DMEM with antibiotics and 10% FCS at 37° C. in the presence of 5% CO2. The cells were observed using a Zeiss Axiovert 200M microscope with a 40× oil immersion objective and a standard Alexa488/FITC filter (Omega, XF100-2; Ex475AF40/Em535AF45/Dichroic505). Subsequent experiments were carried out using smaller concentrations of compound I and incubation times as described in the text and figures legends. For the in vivo tests of compound I-like compounds, the molecules were added to cell culture medium at 10 μM final concentration and incubated with cells 10-60 min (up to 24 hours) prior to scoring.\nTo get a further insight into how the structural properties of compound I contribute to its binding to DNA, the inventors analysed fourteen structural analogues present in the compound library. Although several of these compounds are fluorescent in vivo, this property went undetected in the initial screen most likely due to the latency period before the appearance of the signal (see below). To evaluate the activity of compound I-like molecules three tests were used: (1) in vivo, the inventors incubated human fibroblasts in the presence of the molecules and scored nuclear fluorescence in the microscope; (2 and 3) in vitro, the inventors looked at the absorption and fluorescence of free molecules before and after addition of plasmid DNA. […] With the exception of compound I and analogues 8 and 12, accurate in vitro measurement of the fluorescence intensities was impossible because the emission peaks for the free molecules were too close to that for the DNA-bound dye. This affected the height of the dye/DNA peaks."}, "CT DNA": {"tested_on": "CT DNA", "assay": "viscometry (hydrodynamic studies) of CT DNA solutions", "format": "binding, calf", "description": "Calf thymus (CT) DNA was dissolved in 50 mM Na-phosphate buffer, pH 7.2, to a concentration of 0.1 or 0.5 mM relative to base pairs as described in the legend for FIGS. 3A and B. DNA solution was allowed to run through a custom-made capillary viscometer and the time necessary for the meniscus to pass a certain distance was measured using a stopwatch. All experiments were performed at 23° C. Viscosity values were calculated using the equation: η=(t−t0)/t0, where t is the flow time of DNA solution (with or without dye), and t0 is the flow time of Na-phosphate buffer alone. For each control and DNA solutions with dyes flow times were measured three to five times. Viscosity of DNA solutions with dyes were calculated as (η/η0)^1/3, where η0 and η are relative viscosities of the CT DNA solution in the absence and presence of the dye, respectively. This calculation stems from the relationship which exists between the relative solution viscosity and the relative contour length (L/L0): L/L0=(η/η0)^1/3, where L stands for the apparent molecular length (Muller, W. et al., 1968, J Mol Biol, 35, 251-290). Average viscosity values and standard error of the mean (SEM) were determined using (η/η0)^1/3 values calculated for each time flow measurement.\nDNA-binding dyes interact with dsDNA by intercalation or external binding, or both. External binding most often involves the minor groove of DNA (Kopka et al.; Pjura, P. E., et al., 1987, J Mol Biol, 197, 257-271). Intercalation occurs when a ligand inserts itself between the opposite strands of DNA. In order to determine the mechanism of compound I binding to dsDNA, the inventors performed hydrodynamic studies. This approach is based on the observation that intercalating molecules increase the length of DNA fragments and, consequently, enhance the viscosity of DNA solutions (Muller W. et al.; Suh, D. et al., 1995, Bioorg Med Chem, 3, 723-728). For this experiment, compound I has been compared to the known DNA intercalator ethidium bromide and to the external minor groove binder Hoechst 33258. CT DNA at 0.5 mM was mixed with drugs at 0.1 mM concentration (0.2 dye/bp ratio) and used for viscometry measurements.\nThe inventors then wondered whether the increase in viscosity is equally matched by the increase in fluorescence intensity. To answer this question, CT DNA at 0.1 mM (bp) was mixed with increasing amounts of compound I and viscosity measurements were performed as above. The viscosity of the DNA/compound I solutions increased up to a dye/bp ratio 1 (FIG. 3B). To correlate the increase in viscosity with fluorescence, the inventors measured fluorescence intensities at 484 nm of the compound I/DNA solutions used for the viscosity measurements."}, "stability in DMSO": {"assay": "stability in DMSO", "format": "physicochemical", "description": "Stability of compound I: When stored in the dark in anhydrous DMSO at −25° C., compound I is stable for periods up to 3 years (LC-MS)."}, "human histone 1 (H1)": {"tested_on": "human histone 1 (H1)", "assay": "titration of plasmid DNA with dye in absence or presence of histone 1", "format": "biochemical"}, "[1]": {"tested_on": "primary human fibroblasts", "assay": "nuclear fluorescence compared with cyclin A immunofluorescence (DNA quantification)", "format": "cell-based", "details": "methanol-fixed cells", "description": "Such a double staining carried the risk of a possible competition for binding sites and/or unpredictable effects on fluorescence. Therefore, the inventors decided to compare the integrated total fluorescence of compound I-stained nuclei in fixed cells with a known cell cycle protein marker. The inventors fixed primary human fibroblasts with methanol, performed indirect immunofluorescence with anti-cyclin A antibodies, followed by Alexa 568-labelled secondary antibodies and counterstained nuclei with compound I. Cyclin A accumulates in cells beginning at the S phase and throughout the G2 cell cycle phase, and unlike cyclin B, is practically all nuclear (rev. in Pines, J. et al., 1992, Ciba Found Symp, 170, 187-196; discussion 196-204.). […] Moreover, the inventors observed a direct correlation of the compound I fluorescence with that of cyclin A in cyclin A-positive cells (FIG. 6B). […] This correlates well with 2N and 4N DNA content expected to be found in G1 and G2 cells, respectively."}}, "data": [{"smiles": "COc1ccc2c(c1)c(C)nc1c3ccc(OC)cc3c(NCCCN(C)C)nc21", "note": "[Compound I, N′-(2,8-dimethoxy-12-methyl-dibenzo[c,h][1,5]naphthyridin-6-yl)-N,N-dimethyl-propane-1,3-diamine]", "values": [{"measurement": "Images of the in vivo nuclear staining", "setting": "human fibroblasts", "value": "Strong"}, {"measurement": "dye/bp ratio up to which viscosity increased", "setting": "CT DNA; CT DNA 0.1 mM (bp)", "value": "≤ 1"}, {"measurement": "dye/bp ratio of maximal fluorescence intensity", "setting": "CT DNA; CT DNA 0.1 mM (bp), 484 nm", "value": 0.2}, {"measurement": "effect on viscosity of DNA solution", "setting": "CT DNA; CT DNA 0.5 mM, drug 0.1 mM (0.2 dye/bp ratio)", "value": "increasing the viscosity of the DNA solution"}, {"measurement": "stability, period stable", "setting": "stability in DMSO; DMSO at 4° C. in the dark", "value": "stable for at least one year"}, {"measurement": "stability, period stable", "setting": "stability in DMSO; DMSO solution, ambient temperature, dark", "value": "at least 48 hours"}, {"measurement": "stability, period stable", "setting": "stability in DMSO; anhydrous DMSO at −25° C., dark (LC-MS)", "value": "up to 3 years"}, {"measurement": "effect of H1 on dye/DNA fluorescence", "setting": "human histone 1 (H1); 1 μM plasmid DNA, 1 μM H1, emission 484 nm, excitation 435 nm", "value": "H1 significantly affected the fluorescence"}, {"measurement": "effect of H1 on free dye fluorescence", "setting": "human histone 1 (H1); excited at 391 nm", "value": "not quenched by H1"}, {"measurement": "dye fluorescence of strongly cyclin A-positive nuclei relative to cyclin A-negative nuclei", "setting": "[1]", "value": "approximately twice as much"}]}]}
